Measurements published in ChEMBL document CHEMBL1144693, “Botryolides A-E, decarestrictine analogues from a fungicolous Botryotrichum sp. (NRRL 38180)” (J Nat Prod, 2008).
Activity calls are given as the source filed them.

Columns and labels:
Type in all cases: functional, organism-based
Bacillus subtilis = experiment: Antibacterial activity against Bacillus subtilis ATCC 6051 at 100 ug/disk
Staphylococcus aureus = experiment: Antibacterial activity against Staphylococcus aureus ATCC 25923 at 100 ug/disk
Candida albicans = experiment: Antifungal activity against Candida albicans ATCC 14053 at 100 ug/disk
Fusarium verticillioides = experiment: Antifungal activity against Fusarium verticillioides NRRL 25457 at 100 ug/disk
Aspergillus flavus = experiment: Antifungal activity against Aspergillus flavus NRRL 6541 at 100 ug/disk

Measured: Activity

C[C@@H]1C[C@@H]2O[C@@H]2/C=C/[C@]2(CC(=O)O1)C[C@@H](O)C(=O)O2
inactive: Bacillus subtilis | Staphylococcus aureus | Candida albicans

C[C@@H]1C[C@H](O)C(=O)CCC(O)CC(=O)O1 (stereo partly drawn)
inactive: all assays above

C[C@@H]1C[C@@H]2O[C@@H]2/C=C/[C@H](O)CC(=O)O1
inactive: all assays above

C[C@@H]1C[C@@H]2O[C@@H]2[C@H]2O[C@@H]2[C@@H](O)CC(=O)O1
inactive: all assays above
